In PubChem BioAssay AID330 (DTP/NCI, 2004):
“And” between values parts separate entries of the source, which are not always exact repeats. Equal entries are not always repeated. Toxic doses and inconclusive results are not listed. The calls were made as follows: active = survival T/C of 150% or more; inactive = T/C below 125% in these data.

Tested on: P388 leukemia ip, CD2F1 mice, survival T/C
Assay: NCI In Vivo Anticancer Drug Screen. Data for tumor model P388 Leukemia (intraperitoneal) in CD2F1 (CDF1) mice
Settings: endpoint: median survival time, higher = longer survival
Summary of the method: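 Mice carrying the transplanted tumor received test compound or vehicle. Survival was recorded in each group, and the value is the treated-group measurement divided by that of the vehicle-treated control group.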

[1] = dose: 100.0 mg/kg/injection, schedule: Q04DX003 (ip), vehicle: saline
[2] = dose: 200.0 mg/kg/injection, schedule: Q04DX003 (ip), vehicle: saline
[3] = dose: 400.0 mg/kg/injection, schedule: Q04DX003 (ip), vehicle: saline
[4] = dose: 50.0 mg/kg/injection, schedule: Q01DX005 (ip), vehicle: saline with Tween-80
[5] = dose: 100.0 mg/kg/injection, schedule: Q01DX005 (ip), vehicle: saline with Tween-80
[6] = dose: 200.0 mg/kg/injection, schedule: Q01DX005 (ip), vehicle: saline with Tween-80
[7] = dose: 50.0 mg/kg/injection, schedule: Q01DX005 (ip), vehicle: Klucel (hydroxypropylcellulose) (HPC)
[8] = dose: 100.0 mg/kg/injection, schedule: Q01DX005 (ip), vehicle: Klucel (hydroxypropylcellulose) (HPC)
[9] = dose: 200.0 mg/kg/injection, schedule: Q01DX005 (ip), vehicle: Klucel (hydroxypropylcellulose) (HPC)
[10] = dose: 60.0 mg/kg/injection, schedule: Q01DX005 (ip), vehicle: saline with Tween-80
[11] = dose: 25.0 mg/kg/injection, schedule: Q01DX009 (ip), vehicle: saline with Tween-80
[12] = dose: 50.0 mg/kg/injection, schedule: Q01DX009 (ip), vehicle: saline with Tween-80
[13] = dose: 100.0 mg/kg/injection, schedule: Q01DX009 (ip), vehicle: saline with Tween-80

Measured: T/C

CS(=N)(=O)c1ccccc1N (centres undefined)
inactive: dose: 100.0 mg/kg/injection, schedule: Q04DX003 (ip), vehicle: saline with Tween-80 98 % of control | dose: 200.0 mg/kg/injection, schedule: Q04DX003 (ip), vehicle: saline with Tween-80 99 % of control | dose: 400.0 mg/kg/injection, schedule: Q04DX003 (ip), vehicle: saline with Tween-80 103 % of control

O=C1CCC(C(Sc2ccccc2)Sc2ccccc2)C1 (centres undefined)
inactive: dose: 50.0 mg/kg/injection, schedule: Q01DX009 (ip), vehicle: Klucel (hydroxypropylcellulose) (HPC) 110 % of control | dose: 100.0 mg/kg/injection, schedule: Q01DX009 (ip), vehicle: Klucel (hydroxypropylcellulose) (HPC) 106 % of control | dose: 200.0 mg/kg/injection, schedule: Q01DX009 (ip), vehicle: Klucel (hydroxypropylcellulose) (HPC) 93 % of control

COc1ccc(C2CC(=O)N(c3ncccc3C)C(=O)C2)cc1
inactive: [1] 93 % of control | [2] 100 % of control | [3] 102 % of control

c1cc(-c2cc(-c3cc(-c4ccncc4)n[nH]3)[nH]n2)ccn1
inactive: dose: 60.0 mg/kg/injection, schedule: Q01DX005 (ip), vehicle: Klucel + Tween-80 91 % of control | dose: 120.0 mg/kg/injection, schedule: Q01DX005 (ip), vehicle: Klucel + Tween-80 100 % of control | dose: 240.0 mg/kg/injection, schedule: Q01DX005 (ip), vehicle: Klucel + Tween-80 91 % of control

C/C=C/C1OC(=O)C=C1Sc1ccccc1 (centres undefined)
inactive: [4] 114 % of control | [5] 117 % of control | [6] 114 % of control

O=C1OC2(c3ccc(O)cc3Oc3cc(O)ccc32)c2cccc3cccc1c23
inactive: [7] 105 % of control | [8] 99 % of control | [9] 103 % of control

O=C1OC(=O)C2C3C=CC(O3)C12 (centres undefined)
inactive: dose: 15.0 mg/kg/injection, schedule: Q01DX005 (ip), vehicle: saline 100 % of control | dose: 30.0 mg/kg/injection, schedule: Q01DX005 (ip), vehicle: saline 91 % of control | dose: 60.0 mg/kg/injection, schedule: Q01DX005 (ip), vehicle: saline 87 % of control and 89 % of control

Cc1c(-c2ccccc2)ccnc1/C=N/NC(=S)NCCCN(C)C
inactive: dose: 12.5 mg/kg/injection, schedule: Q01DX009 (ip), vehicle: other 105 % of control | dose: 25.0 mg/kg/injection, schedule: Q01DX009 (ip), vehicle: other 114 % of control | dose: 50.0 mg/kg/injection, schedule: Q01DX009 (ip), vehicle: other 101 % of control and 112 % of control

O=C1c2ccccc2C(=O)N1CC[P+](C1CCCCC1)(C1CCCCC1)C1CCCCC1
inactive: dose: 0.78 mg/kg/injection, schedule: Q01DX009 (ip), vehicle: saline with Tween-80 110 % of control | dose: 1.56 mg/kg/injection, schedule: Q01DX009 (ip), vehicle: saline with Tween-80 112 % of control | dose: 3.13 mg/kg/injection, schedule: Q01DX009 (ip), vehicle: water 97 % of control | dose: 6.25 mg/kg/injection, schedule: Q01DX009 (ip), vehicle: saline with Tween-80 116 % of control | dose: 6.25 mg/kg/injection, schedule: Q01DX009 (ip), vehicle: water 118 % of control | dose: 12.5 mg/kg/injection, schedule: Q01DX009 (ip), vehicle: water 118 % of control | dose: 25.0 mg/kg/injection, schedule: Q01DX009 (ip), vehicle: water 118 % of control | dose: 50.0 mg/kg/injection, schedule: Q01DX009 (ip), vehicle: water 86 % of control

CO[C@@]12[C@H](COC(N)=O)C3=C(C(=O)C(C)=C(NCCO)C3=O)N1C[C@@H]1N[C@@H]12
inactive: dose: 12.5 mg/kg/injection, schedule: Q01DX009 (ip), vehicle: saline sonified 95 % of control | dose: 12.5 mg/kg/injection, schedule: Q04DX003 (ip), vehicle: saline with Tween-80 100 % of control | dose: 25.0 mg/kg/injection, schedule: Q01DX009 (ip), vehicle: saline sonified 95 % of control | dose: 25.0 mg/kg/injection, schedule: Q04DX003 (ip), vehicle: saline with Tween-80 100 % of control | dose: 50.0 mg/kg/injection, schedule: Q01DX009 (ip), vehicle: saline sonified 95 % of control | dose: 50.0 mg/kg/injection, schedule: Q04DX003 (ip), vehicle: saline with Tween-80 100 % of control

CCOC(=O)CCN(C)C1CCCCC1C(=O)OCC (centres undefined)
inactive: dose: 25.0 mg/kg/injection, schedule: Q01DX009 (ip), vehicle: saline 100 % of control | dose: 50.0 mg/kg/injection, schedule: Q01DX009 (ip), vehicle: saline 101 % of control | dose: 100.0 mg/kg/injection, schedule: Q01DX009 (ip), vehicle: saline 107 % of control

[NH-]c1ccccc1[S-].[NH-]c1ccccc1[S-].[Zn]
inactive: [1] 98 % of control | [2] 95 % of control | [3] 95 % of control

CCOC(=O)/C(C#N)=C/c1ccc(C)o1
inactive: dose: 15.0 mg/kg/injection, schedule: Q01DX005 (ip), vehicle: saline with Tween-80 99 % of control | dose: 30.0 mg/kg/injection, schedule: Q01DX005 (ip), vehicle: saline with Tween-80 100 % of control | [10] 100 % of control and 101 % of control

O=C1c2ccccc2-c2c1c1ccccc1c(=O)n2-c1ccccc1
inactive: [4] 102 % of control | [5] 107 % of control | [6] 100 % of control

Clc1ccccc1C(Nc1nncs1)Nc1nncs1
inactive: [10] 106 % of control | dose: 120.0 mg/kg/injection, schedule: Q01DX005 (ip), vehicle: saline with Tween-80 113 % of control | dose: 240.0 mg/kg/injection, schedule: Q01DX005 (ip), vehicle: saline with Tween-80 122 % of control

C=C1C(=O)OC2C1C(OC(=O)/C(C)=C/C)CC(O)(CCl)C1C(OC(C)=O)C=C(C)C21O (centres undefined)
inactive: [11] 117 % of control | [12] 109 % of control | [13] 114 % of control | dose: 200.0 mg/kg/injection, schedule: Q01DX009 (ip), vehicle: saline with Tween-80 108 % of control

CC(CCc1ccccc1)NC(C)C(O)c1ccc(O)cc1 (centres undefined)
inactive: [11] 100 % of control | [12] 100 % of control | [13] 90 % of control

O=C(c1ccccc1C(=O)N1CCCO1)N1CCCO1
inactive: dose: 60.0 mg/kg/injection, schedule: Q01DX005 (ip), vehicle: Klucel (hydroxypropylcellulose) (HPC) 93 % of control | dose: 120.0 mg/kg/injection, schedule: Q01DX005 (ip), vehicle: Klucel (hydroxypropylcellulose) (HPC) 100 % of control | dose: 240.0 mg/kg/injection, schedule: Q01DX005 (ip), vehicle: Klucel (hydroxypropylcellulose) (HPC) 100 % of control

O=C(Nc1ccccc1)Nc1ccc2c(c1)C(=O)CCCC2
inactive: [4] 96 % of control | [5] 93 % of control | [6] 94 % of control

Nc1ccc2c(c1N)C(=O)c1ccccc1C2=O
inactive: [7] 101 % of control | [8] 100 % of control | [9] 100 % of control
